Where a name gives a salt, the structure may show the parent alone.
Key:
[1] = target: T1, Neuraminidase (from Clostridium perfringens, Type V) immobilized on magnetic beads (NA-MBs) (Clostridium perfringens, UniProt A0A0H2YQR1); type: biochemical; conditions: 40 μM MUNANA, 37 °C, 3 min
[2] = target: T1, Neuraminidase (from Clostridium perfringens, Type V) immobilized on magnetic beads (NA-MBs); type: binding; conditions: 5.0 mg/mL ethyl acetate extract fraction of Flos Lonicerae, 37 °C, 1 h
[3] = target: T1, Neuraminidase (from Clostridium perfringens, Type V) immobilized on magnetic beads (NA-MBs); assay: biochemical; conditions: for inhibition at 50 µM: 0.05 h, read-out: Inhibitory ratio (%)
[4] = system: NA; conditions: cited from earlier work; for binder / non-binder for NA: known active/inactive compounds for NA
[5] = target: T1, Neuraminidase (from Clostridium perfringens, Type V) immobilized on magnetic beads (NA-MBs); type: biochemical
[6] = system: NA; conditions: read-out: IC50, literature reported value; cited from earlier work

T1 sequence (A0A0H2YQR1 42-694 limits assumed): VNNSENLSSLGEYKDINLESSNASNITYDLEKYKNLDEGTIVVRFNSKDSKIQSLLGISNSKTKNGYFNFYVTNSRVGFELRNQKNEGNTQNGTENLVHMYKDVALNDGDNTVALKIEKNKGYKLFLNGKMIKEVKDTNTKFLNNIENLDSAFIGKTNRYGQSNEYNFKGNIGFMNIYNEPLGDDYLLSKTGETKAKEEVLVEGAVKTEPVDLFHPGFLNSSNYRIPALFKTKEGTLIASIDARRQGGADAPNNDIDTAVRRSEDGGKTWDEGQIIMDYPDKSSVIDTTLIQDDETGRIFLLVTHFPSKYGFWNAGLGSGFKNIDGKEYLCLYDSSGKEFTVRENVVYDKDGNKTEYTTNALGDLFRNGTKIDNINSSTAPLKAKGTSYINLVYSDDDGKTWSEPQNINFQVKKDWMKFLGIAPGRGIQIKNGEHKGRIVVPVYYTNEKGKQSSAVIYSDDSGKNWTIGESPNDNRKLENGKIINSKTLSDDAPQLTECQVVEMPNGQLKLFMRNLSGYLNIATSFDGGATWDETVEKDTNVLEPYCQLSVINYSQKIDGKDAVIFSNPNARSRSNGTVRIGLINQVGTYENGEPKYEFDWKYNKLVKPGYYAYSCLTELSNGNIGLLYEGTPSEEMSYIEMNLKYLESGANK

For O=C(/C=C/c1ccc(O)c(O)c1)OC1CC(O)(C(=O)O)CC(O)C1OC(=O)/C=C/c1ccc(O)c(O)c1 (centres unmarked) [3,4-di-O-caffeoylquinic acid], the IC50 [1] was 68.3 ± 3.1 µM and the “Retention on NA-MBs in ligand fishing” value [2] was “retained until the final elution steps”.

For O=C(/C=C/c1ccc(O)c(O)c1)OC1CC(O)(C(=O)O)CC(OC(=O)/C=C/c2ccc(O)c(O)c2)C1O (centres unmarked) [3,5-di-O-caffeoylquinic acid], the IC50 [1] was 61.2 ± 1.5 µM and the “Retention on NA-MBs in ligand fishing” value [2] was “retained until the final elution steps”.

With O=C1CCC[C@@H]2[C@H]3CCC[N@+]4([O-])CCC[C@@H](CN12)[C@@H]34 [Ammothamnine] the “Inhibitory ratio (%)” value ([3]; 50 μM tested compound, 40 μM MUNANA, 5 mg NA-MBs, 37 °C, 3 min, 3% DMSO) was under 1%.

Nc1cc[nH]c(=O)n1 [Cytosine] showed an inhibition at 50 µM [3] of under 1%.

Work on COc1ccc2c3c1O[C@H]1C[C@@H](O)C=C[C@@]31CCN(C)C2 [Galantamine, reference compound] yielded an inhibition at 50 µM [3] of under 1%.

Compound Nc1nc2c(ncn2[C@@H]2O[C@H](CO)[C@@H](O)[C@H]2O)c(=O)[nH]1 [Guanosine] has an inhibition at 50 µM [3] of under 1%.

With O=c1c(O[C@@H]2O[C@H](CO)[C@H](O)[C@H](O)[C@H]2O)c(-c2ccc(O)c(O)c2)oc2cc(O)cc(O)c12 [Hyperoside] the inhibition at 50 µM [3] was 32.3 ± 2.7%.

COc1cc(-c2oc3cc(O)cc(O)c3c(=O)c2O)ccc1O [Isorhamnetin] showed an inhibition at 50 µM [3] of 46.8 ± 5.8%.

COc1ccc(-c2oc3cc(O)cc(O)c3c(=O)c2O)cc1 [Kaempferide] showed an inhibition at 50 µM [3] of 43.6 ± 4.9%.

For O=c1c(O)c(-c2ccc(O)cc2)oc2cc(O)cc(O)c12 [Kaempferol], the inhibition at 50 µM [3] was 51.2 ± 6.1%.

For O[C@H]1[C@H]2c3cc4c(cc3CN3CCC(=C[C@@H]1O)[C@H]23)OCO4 [Lycorine], the “binder / non-binder for NA” value [4] is given as “reported non-binders” and the inhibition at 50 µM [3] is given as under 1%.

For CC(=O)N[C@H]1[C@H]([C@H](O)[C@H](O)CO)O[C@@](Oc2ccc3c(C)cc(=O)oc3c2)(C(=O)O)C[C@@H]1O [MUNANA, 2′-(4-methylumbelliferyl)-α-D-N-acetylneuraminic acid sodium salt hydrate], the Km ([4]; substrate on NA-immobilized capillary microreactor) is given as 137 ± 10.8 µM and the Km [5] is given as 46.5 ± 3.68 µM.

For CCOC(=O)C1=C[C@@H](OC(CC)CC)[C@H](NC(C)=O)[C@@H](N)C1 [Oseltamivir], the “binder / non-binder for NA” value [4] is listed as “known binder”, the inhibition at 50 µM [3] is listed as 74.9 ± 3.5% and the IC50 [6] is listed as […].

Work on O=C1CCC[C@@H]2[C@H]3CCC[N+]4([O-])CCC[C@@H](CN12)[C@@H]34 (some centres unmarked) [Oxymatrine] yielded an inhibition at 50 µM [3] of under 1%.

With O=c1c(O)c(-c2ccc(O)c(O)c2)oc2cc(O)cc(O)c12 [Quercetin] the inhibition at 50 µM [3] was 48.1 ± 3.4%.

Compound Cc1c[nH]c(=O)[nH]c1=O [Thymine] has an inhibition at 50 µM [3] of under 1%.

With O=c1cc(-c2ccc(O)c(O)c2)oc2cc(O[C@@H]3O[C@H](CO)[C@@H](O)[C@H](O)[C@H]3O)cc(O)c12 [luteolin-7-O-β-D-glucoside] the IC50 [1] was 76.5 ± 3.9 µM and the “Retention on NA-MBs in ligand fishing” value [2] was “retained until the final elution steps”.

For O=c1cc(-c2ccc(O)c(O)c2)oc2cc(O)cc(O)c12 [luteolin], the “Retention on NA-MBs in ligand fishing” value [2] was “retained until the final elution steps”.

For O=C1CCC[C@@H]2[C@H]3CCCN4CCC[C@@H](CN12)[C@@H]34 [matrine], the “binder / non-binder for NA” value [4] is given as “reported non-binders”.
